In US4107202A, “Substituted 4,4'-biphenylylene bis(2-thioureylene)di-naphthalenetrisulfonic acids and salts thereof” (American Cyanamid Company, priority 1977, dated 1978):
Structures can show the parent of a compound that is named as a salt.

How the values were obtained:
[1] = The New England Journal of Medicine, 286, 808-812 (1972); cited from earlier work
[2] = system: late components of human complement (C3-C9); experiment: Test, Code 035 (C3-C9 inhibitor): lysis of EAC 142 by late components of human complement; type: cell-based; parameters: key: Negative; conditions: activity in wells, two-fold serial dilution assay
shunt pathway = experiment: Test, Code 036 (C-Shunt inhibitor): lysis of fragile human erythrocytes in autologous serum via the shunt pathway activated by cobra venom factor; type: cell-based; parameters: key: Negative; conditions: activity in wells, two-fold serial dilution assay
whole complement = experiment: Complement Level Reduction Test: whole complement in serum of dosed guinea pigs, capillary tube assay; type: in vivo, guinea pig; conditions: 200 mg/kg
Source text: An active inhibitor protects C2 from C1 and C4; (ii) Test, Code 035 (C3-C9 inhibitor) -- This test determines the ability of the late components of human complement (C3-C9) to lyse EAC 142 in the presence of appropriate dilutions of the test compound. An active inhibitor protects EAC 142 from lysis by C3-C9; (iii) Test, Code 036 (C-Shunt inhibitor) -- In this test human erythrocytes rendered fragile are lysed in autologous serum via the shunt pathway activated by cobra venom factor in the presence of appropriate dilutions of the test compound. Inhibition of the shunt pathway results in failure of lysis; (iv) Forssman Vasculitis Test -- Here, the well known complement dependent lesion, Forssman vasculitis, is produced in guinea pigs by intradermal injection of rabbit anti-Forssman antiserum. The lesion is measured in terms of diameter, edema and hemorrhage and the extent to which a combined index of these is inhibited by prior intraperitoneal injection of the test compound at 200 mg/kg is then reported, unless otherwise stated; (v) Forssman Shock Test -- Lethal shock is produced in guinea pigs by an i.v. injection of anti-Forssman antiserum and the harmonic mean death time of treated guinea pigs is compared with that of simultaneous controls; (vi) Complement Level Reduction Test -- In this test, the above dosed guinea pigs, or others, are bled for serum and the complement level is determined in undiluted serum by the capillary tube method of U.S. Pat. No. 3,876,376 and compared to undosed control guinea pigs; and (vii) Cap 50 Test -- Here, appropriate amounts of the test compound are added to a pool of guinea pig serum in vitro, after which the undiluted serum capillary tube assay referred to above is run. The concentration of compound inhibiting 50% is reported.
With reference to Table I, guinea pigs weighing about 300 g were dosed intravenously (i.v.) or intraperitoneally (i.p.) with 200 mg/kg of the test compound dissolved in saline and adjusted to pH 7-8. One hour after dosing, the guinea pigs were decapitated, blood was collected and the serum separated. The serum was tested for whole complement using the capillary tube assay. Percent inhibition was calculated by comparison with simultaneous controls. The results appear in Table I together with results of tests, code 026, 035, 036, Cap 50, % inhibition and Forssman shock.

complement system = conditions: reported in literature; cited from earlier work

## NCCCCCC(=O)O [epsilon-aminocapronic acid]
[1]
  use in the treatment of hereditary angioneurotic edema: used with success

## O=S(=O)(O)c1cc(NC(=S)Nc2ccc(-c3ccc(NC(=S)Nc4cc(S(=O)(=O)O)cc5cc(S(=O)(=O)O)cc(S(=O)(=O)O)c45)cc3S(=O)(=O)O)c(S(=O)(=O)O)c2)c2c(S(=O)(=O)O)cc(S(=O)(=O)O)cc2c1 [8,8'-[(2,2'-Disulfo-4,4'-biphenylylene)bis(2-thioureylene)]di-1,3,6-naphthalenetrisulfonic acid octasodium salt]
[2]
  C-Late 035 Wells: N
Shunt pathway
  Shunt Inhibition 036 Wells: N
Whole complement; intraperitoneal, 30 min
  In Vivo Activity (Guinea Pig) % Inhibition: -55%
Whole complement; intraperitoneal, 60 min
  In Vivo Activity (Guinea Pig) % Inhibition: -55%
Whole complement; intraperitoneal, 120 min
  In Vivo Activity (Guinea Pig) % Inhibition: -70%
Whole complement; intravenous, 2 min
  In Vivo Activity (Guinea Pig) % Inhibition: -92%
Whole complement; intravenous, 30 min
  In Vivo Activity (Guinea Pig) % Inhibition: -46%
Whole complement; intravenous, 120 min
  In Vivo Activity (Guinea Pig) % Inhibition: -31%

## Cc1ccc(C(=O)Nc2ccc(S(=O)(=O)O)c3cc(S(=O)(=O)O)cc(S(=O)(=O)O)c23)cc1NC(=O)c1cccc(NC(=O)Nc2cccc(C(=O)Nc3cc(C(=O)Nc4ccc(S(=O)(=O)O)c5cc(S(=O)(=O)O)cc(S(=O)(=O)O)c45)ccc3C)c2)c1 [Suramin]
Complement system
  complement inhibiting / anticomplementary effect: competitive inhibitor of the complement system

## Nc1ccc2cc(S(=O)(=O)O)cc(O)c2c1N=Nc1ccc(NC(=O)Nc2ccc(N=Nc3c(N)ccc4cc(S(=O)(=O)O)cc(O)c34)c(S(=O)(=O)O)c2)cc1S(=O)(=O)O [chlorazol fast pink, 3,3'-ureylenebis-[6-(2-amino-8-hydroxy-6-sulfo-1-naphthylazo)]benzenesulfonic acid, tetrasodium salt]
Complement system
  complement inhibiting / anticomplementary effect: anticomplementary effect

## heparin
Complement system
  complement inhibiting / anticomplementary effect: anticomplementary effect

## NC[C@H]1CC[C@H](C(=O)O)CC1 [tranexamic acid]
[1]
  use in the treatment of hereditary angioneurotic edema: used with success
